Literature values in patent US20080268488A1, “Screening Method for Dnak Inhibitors” (priority 2005, published 2008).
No end group written: not given here.

Settings: aminopeptidase and carboxypeptidase cleavage products observed

Row | Sequence | susceptibility to proteolytic degradation in the presence of mammalian serum
1 | GKPRPYSPRPTSHPRPIRV [drosocin, Gly-Lys-Pro-Arg-Pro-Tyr-Ser-Pro-Arg-Pro-Thr-Ser-His-Pro-Arg-Pro-Ile-Arg-Val] | highly susceptible to proteolytic degradation
2 | VDKGSYLPRPTPPRPIYNRN [pyrrhocoricin] | highly susceptible to proteolytic degradation
